Test results reported in patent US6495594B2, “Biologically active analogs of discodermolide” (Harbor Branch Oceanographic Institution, Inc., priority 2000, dated 2002).

Columns and labels:
[1] = system: P388 murine leukemia cell lines; assay: In vitro proliferation of P388 cells (MTT); format: cell-based; settings: 48-h exposure
Method: Discodermolide and discodermolide analogs were analyzed as to their effects on proliferation of A549 human adenocarcinoma and P388 murine leukemia cell lines. P388 cells were obtained from Dr. R. Camalier, National Cancer Institute, Bethesda, MD, and A549 cells were obtained from American Type Culture Collection, Rockville, MD. All cell lines were maintained in tissue culture medium (TCM; Roswell Park Memorial Institute RPMI 1640 supplemented with 100 U/mL penicillin, […], 60 […], 18 mM HEPES, 0.05 mg/mL gentamicin (Life Technologies, Gaithersburg, MD) and 10% fetal bovine serum) and cultured in plastic tissue culture flasks at 37° C. in humidified air containing 5% CO2. Stock cultures of P388 cells were subcultured 1:20 in fresh TCM every 2 to 3 days. Stock cultures of A549 cells were subcultured 1:10 every 3 to 4 days. To assess the antiproliferative effects of agents against the cells, 200 μL cultures (96-well tissue culture plates, Nunc, Denmark) were established at 1 ×10^5 cells/mL in TCM or TCM containing the test agent at 0.03-5.0 μg/mL. After 48-h exposures, P388 cells were enumerated using 3-[4,5-dimethylthiazol-2-yl]-2,5-diphenyltetrazolium bromide (MTT) as described in the literature (M. C. Alley, et al., Cancer Res. 48:589, 1988). A549 cells were enumerated in the same manner after 72 hours exposure. The results were expressed as percent inhibition compared to the negative (no drug) control. Positive drug controls of varying dilutions of 5-fluorouracil and adriamycin (Sigma Chemical Co., St Louis, MO) were included to monitor drug sensitivity of the cell line.
To quantitate the effects on cell proliferation and resulting IC50 values, 75 μL of warm growth media containing 5 mg/mL MTT is added to each well, cultures returned to the incubator, and left undisturbed for 3 hours. To spectrophotometrically quantitate formation of reduced formazan, plates are centrifuged (500×g, 10 minutes), culture fluids removed by aspiration, and 200 μL of acidified isopropanol (2 mL concentrated HCl /liter isopropanol) added per well. The absorbance of the resulting solutions is measured in a plate reader (TECAN Spectra SLT; TECAN U.S., Research Triangle Park, N.C.) at 570 nm and a 650 nm reference filter. The absorbance of test wells is divided by the absorbance of drug-free wells, and the concentration of agent that results in 50% of the absorbance of untreated cultures (IC50) is determined by linear regression of logit-transformed data (D. J. Finney, Statistical Method in Biological Assay, third ed., pp. 316-348, Charles Griffin Co., London, 1978). A linear relationship between tumor cell number and formazan production has been routinely observed over the range of cell densities observed in these experiments. The two standard drug controls (indicated above) are included in each assay as a check to monitor the drug sensitivity of each of the cell lines and IC50 values are determined for each drug-cell combination.

[2] = system: A549 human adenocarcinoma tumor cells; assay: Microtubule bundling patterns in tumor cells by immunofluorescence; format: cell-based; design: key to Microtubule bundling in A549 cells: −: no effect; +/−: minimal or questionable effect; +: weak effect; ++: strong effect; +++: very strong effect equivalent to discodermolide
Method: Discodermolide and discodermolide analogs were evaluated as to their effects on the morphology of the microtubule network of cells using mouse anti-alpha-tubulin monoclonal antibody.
On day one, 7×10^4 adherent A549 human adenocarcinoma tumor cells were cultured in TCM overnight at 37° C. in 5% CO2 on 22 mm^2 cover slips in 6-well microtiter plates. On day two, TCM was removed and replaced with 10-1000 nM discodermolide or analog in TCM or TCM without drug (control) and incubated overnight at 37° C. in 5% CO2. On day three, TCM was removed and cells attached to cover slips were fixed with a 3.7% formaldehyde solution in Dulbecco's PBS for 10 minutes at room temperature. Cells were permeabilized with a 2% Triton X-100 solution, 2 mL per well, for 5 minutes at room temperature and washed twice in Dulbecco's PBS prior to staining.
To each well containing cells attached to cover slips a 2 mL volume of mouse anti- alpha-tubulin monoclonal antibody (Cat# T-5168, Sigma Chemical Co., St. Louis, Mo.) diluted 1:1000 in Dulbecco's phosphate buffered saline (D-PBS) was added and the cells incubated at room temperature for 45 minutes. Cover slips were rinsed once with D-PBS. A 2 mL volume of goat-anti-mouse-IgG-FITC conjugated antibody (Cat# T-5262, Sigma Chemical Co., St. Louis, Mo.) diluted 1:1000 in D-PBS was added and the cells incubated at room temperature for 45 minutes. Cover slips were rinsed once in D-PBS and DNA was stained with 0.02 mg/mL propidium iodide together with 0.1 mg/mL of ribonuclease A (RNAse) A in D-PBS at 37° C. for 30 minutes. Cover slips were rinsed three times with sterile distilled water, air-dried and mounted on slides with SlowFade™ antifade solution (Molecular Probes, Eugene, Oreg.) and observed under the microscope using epifluorescence illumination for the presence of abnormal aster and microtubule bundle formations.

A549 human lung cells = assay: Cell cycle progression by flow cytometry; format: cell-based
Method: Cell cycle studies were initiated in order to pinpoint a specific phase within the cell cycle in which discodermolide analogs were exerting their antiproliferative effect. A549 human lung cells were used as cell cycle targets to compare the effects of discodermolide and discodermolide analogs on perturbation of the cell cycle. Cell cycle analyses were performed as follows: A549 cells were incubated at 37° C. in 5% CO2 in air in the presence or absence of varying concentrations of discodermolide or discodermolide analogs for 24 hr. Cells were harvested, fixed in ethanol, washed, and stained with 0.02 mg/mL of propidium iodide (P.I.) together with 0.1 mg/mL of RNAse A. Stained preparations were analyzed on a Coulter EPICS ELITE flow cytometer with 488 nm excitation. Fluorescence measurements and resulting DNA histograms were collected from at least 10,000 P.I. stained cells at an emission wavelength of 690 nm. Raw histogram data was further analyzed using a cell cycle analysis program (Multicycle, Phoenix Flow Systems).

[3] = see U.S. Pat. No. 6,127,406; cited from earlier work

Row | Structure (SMILES) | Cytotoxicity compared to the parent molecule [3] | also measured
1 | CCCCC(C)C(OC(N)=O)C(C)C(OC(C)=O)C(C)CC(C)=CC(C)C(OC(C)=O)C(C)CCCCC1OC(=O)C(C)C(OC(C)=O)C1C (stereo not drawn) [7-deoxy-8,21,23-hexahydrodiscodermolide-3,11,17-triacetate] |  | IC50 P388 cells [1]: >5 µg/mL; IC50 ([1]; value in parentheses): > 7.5 µM; Microtubule bundling observation ([2]; 10 nM through 1000 nM): no bundling seen; Microtubule bundling in A549 cells ([2]; subjective rating versus discodermolide, Table 12): −; Cell cycle effects (A549 human lung cells; 10 nM): No cell cycle effects were noted; Cell cycle effects (100 nM) (A549 human lung cells; 100 nM, 24 hr, A549): No cell cycle effects were noted; Cell cycle effects (A549 human lung cells; 1000 nM): No cell cycle effects were noted
2 | C=CC=CC(C)C(OC(N)=O)C(C)C(OC(C)=O)C(C)CC(C)=CC(C)C(OC(C)=O)C(C)C=CC(CC1OC(=O)C(C)C(OC(C)=O)C1C)OC(C)=O (stereo not drawn) [discodermolide-3,7,11,17-tetraacetate] | dramatic reduction in the activity | 
3 | C=CC=CC(C)C(OC(N)=O)C(C)C(O)C(C)CC(C)=CC(C)C(OC(C)=O)C(C)C=CC(CC1OC(=O)C(C)C(OC(C)=O)C1C)OC(C)=O (stereo not drawn) [discodermolide-3,7,11-triacetate] | reduced cytotoxicity | 
4 | C=CC=CC(C)C(OC(N)=O)C(C)C(OC(C)=O)C(C)CC(C)=CC(C)C(O)C(C)C=CC(CC1OC(=O)C(C)C(OC(C)=O)C1C)OC(C)=O (stereo not drawn) [discodermolide-3,7,17-triacetate] | dramatic reduction in the activity | 
5 | C=CC=CC(C)C(OC(N)=O)C(C)C(O)C(C)CC(C)=CC(C)C(O)C(C)C=CC(CC1OC(=O)C(C)C(OC(C)=O)C1C)OC(C)=O (stereo not drawn) [discodermolide-3,7-diacetate] | greater cytotoxicity | 
6 | C=CC=CC(C)C(OC(N)=O)C(C)C(O)C(C)CC(C)=CC(C)C(OC(C)=O)C(C)C=CC(O)CC1OC(=O)C(C)C(OC(C)=O)C1C (stereo not drawn) [discodermolide-3,11-diacetate] | reduced cytotoxicity | 
7 | C=CC=CC(C)C(OC(N)=O)C(C)C(OC(C)=O)C(C)CC(C)=CC(C)C(O)C(C)C=CC(O)CC1OC(=O)C(C)C(OC(C)=O)C1C (stereo not drawn) [discodermolide-3,17-diacetate] | dramatic reduction in the activity | 
8 | C=CC=CC(C)C(OC(N)=O)C(C)C(O)C(C)CC(C)=CC(C)C(O)C(C)C=CC(O)CC1OC(=O)C(C)C(OC(C)=O)C1C (stereo not drawn) [discodermolide-3-acetate] | greater cytotoxicity | 
9 | C=CC=CC(C)C(OC(N)=O)C(C)C(O)C(C)CC(C)=CC(C)C(O)C(C)C=CC(CC1OC(=O)C(C)C(O)C1C)OC(C)=O (stereo not drawn) [discodermolide-7-acetate] | greater cytotoxicity | 
